In patent US11634395B2, “Sulfonamide compound or salt thereof” (Taiho Pharmaceutical Co., Ltd., priority 2016, dated 2023):

Tested on: HCC 1806 cells
Assay: Cell proliferation inhibitory effect on human breast cancer cell line (crystal violet, 72 hours)
Format: cell-based
Details: read-out: Cell growth suppression IC50
Description: Human derived breast cancer cell line HCC 1806 cells were daily passaged at a cell density not exceeding 80% in ATCC recommended Roswell Park Memorial Institute medium (RPMI-1640) containing 10% fetal bovine serum (FBS). In order to start the test of cell proliferation inhibitory activity, HCC 1806 cells were suspended in the above medium, after seeing at 180 μl in each well of a 96-well flat bottom plate so that the number of cells per well was 2,000, the cells were cultured at 37° C. for 1 day in an incubator containing 5% carbon dioxide gas. On the next day, the test compound was dissolved in DMSO, and 20 μl of a drug additive solution diluted serially with distilled water to 10 times of the final concentration was added to each well of the culture plate of the cells, and the cells were cultured at 37° C. for 72 hours in an incubator containing 5% carbon dioxide gas. […] 100 μL of an extract solution (0.1 N NaH2PO4: 100% ethanol=1:1) was added to each well and mixed, and the mixture was measured at a wavelength of 540 nm using a plate reader (MTP-450 manufactured by Corona Electric Co., Ltd.). […]
T: Absorbance of well to which test compound was added
C: Absorbance of wells to which no test compound was added
B: Absorbance of wells to which no cell suspension was added

IC50: 600 nM
SMILES: Cc1ccc(F)c([C@@H](C)[C@H](NS(=O)(=O)c2ccc(C(F)(F)F)c3c2OCCC3(C)O)c2n[nH]c(=O)o2)c1C (single isomer, unassigned) [Example 225A]
